Tested on: T1, TcCAT-1
T1 construct: native, purified from wild ascocarps (Zarzadilla de Totana, Lorca, Murcia, Spain); large-subunit monofunctional heme catalase, Clade 2, L2 group
Experiment: H2O2 decomposition at […] nm
Type: biochemical, Terfezia claveryi
Settings: 10 mM H2O2, 0.1 M sodium phosphate pH 7.0, room temperature

IC50 (text b58 prints 0.125 mM) [µM]	SMILES	IC50 [µM]
–	NO [hydroxylamine]	0.1 ± 0.01
130 ± 20	OCCS [2-mercaptoethanol]	–
